Experimental data as given in patent US7417041B2, “Imidazopyrimidines as transforming growth factor (TGF) inhibitors” (Pfizer Inc., priority 2003, dated 2008).

Target: T1, TβRI (Homo sapiens, UniProt P36897)
T1 construct: using either the kinase domain of ALK5 with Smad3 as substrate; GST
T1 sequence (P36897 205-495 limits assumed): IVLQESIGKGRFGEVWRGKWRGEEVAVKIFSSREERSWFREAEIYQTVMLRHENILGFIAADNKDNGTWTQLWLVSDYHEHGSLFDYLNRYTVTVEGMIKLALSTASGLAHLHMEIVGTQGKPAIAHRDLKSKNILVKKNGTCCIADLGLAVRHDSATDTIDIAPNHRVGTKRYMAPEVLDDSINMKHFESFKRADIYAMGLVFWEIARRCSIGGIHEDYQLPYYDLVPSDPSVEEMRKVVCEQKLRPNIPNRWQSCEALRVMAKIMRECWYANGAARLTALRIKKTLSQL
Test: ALK-5 (TβRI) kinase assay
Format: biochemical
Settings: read-out: in vitro IC50 value against TβRI
Procedure: ALK-5 (TβRI) Kinase Assay Protocol
The kinase assays were performed with 65 nM GST-ALK5 and 84 nM GST-Smad3 in 50 mM HEPES, 5 mM MgCl2, 1 mM CaCl2, 1 mM dithiothreitol, and 3_M ATP. Reactions were incubated with 0.5_Ci of [33 P]ATP for 3 h at 30° C. Phosphorylated protein was captured on P-81 paper (Whatman, Maidstone, England), washed with 0.5% phosphoric acid, and counted by liquid scintillation. Alternatively, Smad3 or Smad1 protein was also coated onto FlashPlate Sterile Basic Microplates (PerkinElmer Life Sciences, Boston, Mass.). Kinase assays were then performed in Flash-Plates with same assay conditions using either the kinase domain of ALK5 with Smad3 as substrate or the kinase domain of ALK6 (BMP receptor) with Smad1 as substrate. Plates were washed three times with phosphate buffer and counted by TopCount (Packard Bio-science, Meriden, Conn.). (Laping, N. J. et al. Molecular Pharmacology 62:58-64 (2002)).

IC50: 253 nM
SMILES: Cc1cccc(-c2c(-c3ccc4nnn(C)c4c3)nc3ncccn23)n1 [Example 15, 1-Methyl-6-[3-(6-methyl-pyridin-2-yl)-imidazo[1,2-a]pyrimidin-2-yl]-1H-benzotriazole]
